According to the supplement of paper PMC13380429:

What was measured:
Conditions in all cases: 72 h
[1] = system: HepG2; assay: drug sensitivity score (DSS) for viability; higher = more toxic; extreme values may be limits of the assay
[2] = system: Vero E6; assay: as above
[3] = system: Calu-3; assay: as above
[4] = system: U2OS; assay: as above
[5] = system: Caco-2; assay: as above
[6] = system: HepG2; assay: cell viability relative to DMSO; higher = less toxic
[7] = system: Vero E6; assay: as above
[8] = system: Calu-3; assay: as above
[9] = system: U2OS; assay: as above
[10] = system: Caco-2; assay: as above
[11] = system: HepG2; assay: relative viability EC50 (midpoint between 100% and the lowest measured viability); higher = less toxic
[12] = system: Vero E6; assay: as above
[13] = system: Calu-3; assay: as above
[14] = system: U2OS; assay: as above
[15] = system: Caco-2; assay: as above

| Compound | drug sensitivity score [1] | drug sensitivity score [2] | drug sensitivity score [3] | drug sensitivity score [4] | drug sensitivity score [5] | cell viability ([6]; 1 nM) [%] | cell viability ([6]; 10 nM) [%] | cell viability ([6]; 100 nM) [%] | cell viability ([6]; 1000 nM) [%] | cell viability ([6]; 10000 nM) [%] | cell viability ([7]; 1 nM) [%] | cell viability ([7]; 10 nM) [%] | cell viability ([7]; 100 nM) [%] | cell viability ([7]; 1000 nM) [%] | cell viability ([7]; 10000 nM) [%] | cell viability ([8]; 1 nM) [%] | cell viability ([8]; 10 nM) [%] | cell viability ([8]; 100 nM) [%] | cell viability ([8]; 1000 nM) [%] | cell viability ([8]; 10000 nM) [%] | cell viability ([9]; 1 nM) [%] | cell viability ([9]; 10 nM) [%] | cell viability ([9]; 100 nM) [%] | cell viability ([9]; 1000 nM) [%] | cell viability ([9]; 10000 nM) [%] | cell viability ([10]; 1 nM) [%] | cell viability ([10]; 10 nM) [%] | cell viability ([10]; 100 nM) [%] | cell viability ([10]; 1000 nM) [%] | cell viability ([10]; 10000 nM) [%] | relative viability EC50 [11] [µM] | relative viability EC50 [12] [µM] | relative viability EC50 [13] [µM] | relative viability EC50 [14] [µM] | relative viability EC50 [15] [µM] |
| --- | --- | --- | --- | --- | --- | --- | --- | --- | --- | --- | --- | --- | --- | --- | --- | --- | --- | --- | --- | --- | --- | --- | --- | --- | --- | --- | --- | --- | --- | --- | --- | --- | --- | --- | --- |
| CCOc1ccc(-c2ccc(Cn3c(CC(C)(C)C(=O)O)c(SC(C)(C)C)c4cc(OCc5ccc(C)cn5)ccc43)cc2)cn1 | 1 | 1.3 | 0 | 1 | 0 | 104 | 104 | 102 | 86.2 | 95.7 | 98.6 | 95.4 | 90.1 | 94 | 76.1 | 107 | 105 | 111 | 112 | 99.9 | 100 | 106 | 96.6 | 97.8 | 78.2 | 98.4 | 98.8 | 105 | 103 | 88.9 | > 10 | > 10 | > 10 | > 10 | > 10 |
| C=C1/C(=C\C=C2/CCC[C@]3(C)[C@@H]([C@H](C)/C=C/[C@H](C)C(C)C)CC[C@@H]23)C[C@@H](O)C[C@@H]1O [doxercalciferol] | 0 | 0 | 0 | 0 | 0 | 101 | 94.8 | 99.8 | 96.4 | 99.9 | 97.7 | 101 | 97.1 | 95.9 | 106 | 95.3 | 102 | 99.9 | 95.8 | 111 | 92.2 | 102 | 94.9 | 96.7 | 100 | 104 | 103 | 96.3 | 98.2 | 97.2 | > 10 | > 10 | > 10 | > 10 | > 10 |
| NC(=O)c1cccc(-c2cc(Nc3ccc(OC(F)(F)F)cc3)ncn2)c1 [GNF-2] | 1.3 | 0 | 0.5 | 0 | 1.3 | 108 | 99.6 | 93.4 | 96.4 | 77.3 | 104 | 99 | 94.6 | 106 | 102 | 104 | 103 | 97.9 | 90.3 | 86.6 | 103 | 99.2 | 99.1 | 102 | 103 | 102 | 102 | 104 | 87.1 | 83.7 | > 10 | > 10 | > 10 | > 10 | > 10 |
| CC(C)C(N)C(=O)O (stereo in doubt) [L-valine] | 0 | 0 | 0 | 0 | 0 | 94.8 | 94.5 | 99 | 96.9 | 99.3 | 96.8 | 96.7 | 96.6 | 92.3 | 95.5 | 102 | 105 | 95.9 | 93 | 99 | 101 | 92.7 | 98.1 | 93.5 | 102 | 96 | 91.3 | 100 | 98.7 | 102 | > 10 | > 10 | > 10 | > 10 | > 10 |
| O=C(O)c1cc2cccc([N+](=O)[O-])c2[nH]1 | 0 | 0 | 0 | 0 | 0 | 102 | 99.2 | 98.8 | 112 | 112 | 97.2 | 99.2 | 93.6 | 97.6 | 110 | 90.8 | 101 | 100 | 99.5 | 111 | 100 | 97.9 | 101 | 102 | 104 | 98 | 91.4 | 88.4 | 101 | 116 | > 10 | > 10 | > 10 | > 10 | > 10 |
| c1cnc2cc3c(cc2n1)[C@@H]1CNC[C@H]3C1 [varenicline] | 0 | 0 | 0 | 0 | 0 | 97.2 | 88.7 | 90.4 | 95.4 | 101 | 91 | 99.8 | 91.4 | 98.7 | 104 | 105 | 99.1 | 108 | 98.1 | 105 | 97.5 | 93.5 | 103 | 96.3 | 104 | 95.4 | 91.9 | 103 | 93.1 | 93.7 | > 10 | > 10 | > 10 | > 10 | > 10 |
| CCCCCCCCCCCCCCCCCCCCCCO [docosanol] | 0.7 | 0 | 0 | 0 | 0.2 | 104 | 100 | 104 | 93.2 | 85.1 | 108 | 98.4 | 98.2 | 88.4 | 104 | 87.6 | 97.6 | 96.4 | 102 | 96.5 | 92.3 | 96.2 | 94.6 | 98.6 | 105 | 95.8 | 92.2 | 99.5 | 116 | 82.1 | > 10 | > 10 | > 10 | > 10 | > 10 |
| FC(F)(F)c1ccccc1-c1cc(C(F)(F)F)c2[nH]c(C3=NOC4(CCCCC4)C3)nc2c1 [TC-I-2014] | 0 | 0 | 0 | 0 | 0 | 91.6 | 103 | 97.4 | 98.4 | 89.3 | 95.6 | 98.8 | 90.1 | 94.8 | 89.5 | 112 | 105 | 97.7 | 99.8 | 97.7 | 106 | 103 | 103 | 100 | 90.7 | 91.9 | 95.5 | 96.8 | 93.4 | 89.8 | > 10 | > 10 | > 10 | > 10 | > 10 |
| Cc1nnsc1C(=O)Nc1ccc(-n2nc(C(F)(F)F)cc2C(F)(F)F)cc1 | 0 | 0 | 0 | 0 | 0.2 | 94.5 | 98.8 | 105 | 107 | 90.9 | 95.9 | 96.2 | 94.7 | 97.8 | 95.6 | 101 | 98.4 | 95.2 | 104 | 99.9 | 99.9 | 97.9 | 100 | 100 | 99.1 | 93.4 | 83.8 | 105 | 87.2 | 85.1 | > 10 | > 10 | > 10 | > 10 | > 10 |
| C[C@]12CC[C@H](O)C[C@H]1CC[C@@H]1[C@@H]2CC[C@]2(C)[C@@H](C3=CC(=O)OC3)CC[C@]12O [digitoxigenin] | 12.4 | 28.4 | 10.5 | 15.2 | 13.5 | 118 | 117 | 94.5 | 39.2 | 12.2 | 108 | 97.3 | 13.2 | 0.7 | 0.6 | 97.7 | 93.4 | 104 | 50.5 | 17.7 | 105 | 105 | 101 | 16.4 | 6.9 | 78.9 | 84.9 | 84.1 | 36 | 42.3 | 0.605 | 0.0448 | 0.849 | 0.435 | 0.18 |
| CCOc1ccc(Cc2cc([C@]34OC[C@](CO)(O3)[C@@H](O)[C@H](O)[C@H]4O)ccc2Cl)cc1 [ertugliflozin] | 0 | 0 | 0 | 0 | 0 | 108 | 109 | 107 | 98.6 | 98.6 | 102 | 104 | 95.1 | 101 | 102 | 106 | 99.1 | 104 | 98.7 | 96.4 | 101 | 102 | 102 | 98.1 | 101 | 96.8 | 96.9 | 90.5 | 89.9 | 103 | > 10 | > 10 | > 10 | > 10 | > 10 |
| O=C(O)c1cc([N+](=O)[O-])ccc1NCCCc1ccccc1 [NPPB] | 0 | 0 | 0 | 0 | 0 | 91.7 | 101 | 97.5 | 102 | 99.9 | 94.9 | 98.3 | 90.5 | 94 | 105 | 99.7 | 105 | 101 | 114 | 96.2 | 101 | 98.3 | 100 | 96.4 | 94.8 | 102 | 87.7 | 93.5 | 95.5 | 94.5 | > 10 | > 10 | > 10 | > 10 | > 10 |
| CC[C@H](NC(=O)c1c(O)c(-c2ccccc2)nc2ccccc12)c1ccccc1 [talnetant] | 1 | 0 | 0 | 0 | 0 | 102 | 99 | 94.6 | 100 | 74.2 | 109 | 102 | 98.4 | 102 | 102 | 104 | 97.3 | 104 | 96.5 | 106 | 100 | 92.7 | 104 | 95 | 101 | 97.9 | 98.9 | 101 | 98.1 | 90 | – | > 10 | > 10 | > 10 | > 10 |
| CCCCCCCCCCCCCCC[C@@H](O)[C@@H](N)CO [safingol] | 1.9 | 0 | 0 | 0 | 6 | 106 | 103 | 80 | 95.5 | 73.7 | 106 | 106 | 96.1 | 104 | 106 | 85.3 | 96.8 | 95.2 | 108 | 96.4 | 94 | 97.9 | 102 | 97.9 | 103 | 94.1 | 85.3 | 91 | 96.1 | 1.7 | – | > 10 | > 10 | > 10 | 2.87 |
